{"source": "patent US9895393B2", "about": "“Topical formulations for increasing the dermal concentration of hyaluronic acid” (SHAMROC, INC., priority 2012, dated 2018)", "origin": "cited, not measured here", "key": {"[1]": {"test_system": "skin", "settings": "Studies have shown"}, "[2]": {"test_system": "lipid peroxidation"}, "[3]": {"test_system": "human fibroblasts"}}, "note": "Peptide text beside a SMILES is read from it. * marks the point of attachment. Palmitoyl = CCCCCCCCCCCCCCCC(=O)*", "data": [{"smiles": "CCCCCCCCC(CCCCCC)C(=O)OC[C@H](OC(=O)C(CCCCCC)CCCCCCCC)[C@H]1OC(=O)C(OC(=O)C(CCCCCC)CCCCCCCC)=C1OC(=O)C(CCCCCC)CCCCCCCC", "note": "(stereo partly shown) [tetrahexyldecyl ascorbate]", "values": [{"measurement": "collagen production", "setting": "[1]", "value": "stimulate collagen production"}, {"measurement": "melanogenesis (the production of pigment)", "setting": "[1]", "value": "inhibiting melanogenesis"}, {"measurement": "anti-oxidant activity", "setting": "[2]", "value": "inhibiting lipid peroxidation"}]}, {"smiles": "CCCCCCCCCCCCCCCC(=O)N[C@@H](CCCCN)C(=O)N[C@H](C(=O)N[C@@H](CCCCN)C(=O)O)C(C)C.O=C(O)C(F)(F)F.O=C(O)C(F)(F)F", "note": "[palmitoyl-lysyl-valyl-lysine bistrifluoroacetate] (Palmitoyl-Lys-Val-Lys-OH)", "values": [{"measurement": "collagen synthesis", "setting": "[3]", "value": "stimulates collagen synthesis"}]}]}
